Source: publication PMC2833169, “Anti-malarial activity of a non-piperidine library of next-generation quinoline methanols” (Malaria Journal, 2010)
In brackets after ≈: the same amount, converted by molar mass. Where two headings read alike, the source gives them in different places.

Columns and labels:
[1] = tested on: P. falciparum strain W2; test: labeled hypoxanthine susceptibility assay, P. falciparum W2; type: cell-based, Plasmodium falciparum; settings: Plasmodium falciparum
Protocol: (§1) The in vitro activities of quinoline methanols against P. falciparum strains W2, D6, TM91C235, and TM90C2A were evaluated using the traditional labeled hypoxanthine assay of Desjardins et al as modified by Milhous et al. These four P. falciparum strains were selected since they have various levels of resistance to conventional anti-malarials.

[2] = tested on: P. falciparum strain D6; test: labeled hypoxanthine susceptibility assay, P. falciparum D6; type: cell-based, Plasmodium falciparum; settings: Plasmodium falciparum
Protocol: as §1

[3] = tested on: P. falciparum strain TM91C235; test: labeled hypoxanthine susceptibility assay, P. falciparum TM91C235; type: cell-based, Plasmodium falciparum; settings: Plasmodium falciparum
Protocol: as §1

[4] = tested on: P. falciparum strain TM90C2A; test: labeled hypoxanthine susceptibility assay, P. falciparum TM90C2A; type: cell-based, Plasmodium falciparum
Protocol: as §1

[5] = in vitro; settings: mouse
Protocol: (§2) General cytotoxicity was assessed by first determining LC50 's against a rodent macrophage (RAW) cell line using the 3-(4,5-dimethylthiazole-2-yl)-2,5-diphenyltetrazolium bromide (MTT) assay as described in one of our earlier studies. This screen was conducted to identify compounds that may require de-selection due to generalized toxicity. […] In vitro neurocytotoxicity was assessed by determining LC50s against primary mouse neurons using the MTT assay as described previously. Inhibition of the A2A and A1 receptors was determined at 200 nM in duplicate by Caliper Biosciences (Hanover, Maryland).

[6] = in vitro; settings: dog, MDCK-MDR1, pH 7.4
Protocol: (§3) For this reason, the apparent permeability of selected compounds across MDR1-transfected MDCK cell monolayers was determined. This assay is an in vitro surrogate of the blood-brain barrier.
(§4) Permeability was determined by Absorption Systems (Exton, PA). MDR1-MDCK cell monolayers were grown to confluence on collagen-coated, microporous, polycarbonate membranes in 12-well Costar Transwell plates. […] The permeability assay buffer was Hanks Balanced Salt Solution containing 10 mM HEPES and 15 mM glucose at a pH of 7.4. A known p-glycoprotein inhibitor cyclosporin A (CSA) was also added to the assay buffer at 10 μM. Bovine serum albumin (1%) was added to the receiver well. The dosing solution concentrations of the test compounds were 5.0 μM in the assay buffer. All cell monolayers were first pre-incubated for 30 minutes with assay buffer. After 30 minutes, the buffer was removed, replaced with fresh buffer, and time was recorded as 0. […] Cell monolayers were dosed on the apical side (A-to-B) or basolateral side (B-to-A) and incubated at 37°C with 5% CO2 in a humidified incubator. After 2 hours, aliquots were taken from the receiver chambers. Samples were taken from the donor chamber at 0 and 2 hours. Each determination was performed in duplicate. The lucifer yellow flux was also measured for each monolayer to ensure no damage was inflicted to the cell monolayers during the flux period. All samples were assayed by LC/MS/MS using electrospray ionization.
(§5) Apparent permeability in the apical (A-B direction), PappA-B, and percent recovery are reported. Apparent permeability is a measure of the rate of transport across the cell monolayer. Percent recovery refers to the amount of compound recoverable at the end of the assay. Low recovery may indicate non-specific binding to assay plates, instability or accumulation in the cell pellet.
(§6) The apparent permeability, Papp, and percent recovery were calculated as follows:
(§7) Papp = (dCr/dt) × Vr/(A × C0) (1)
(§8) Percent Recovery = 100 × ((Vr × Cr^final) + (Vd × Cd^final))/(Vd × […]) (2)

[7] = tested on: MDR1-transfected MDCK cell monolayers; test: in vitro; settings: dog, MDCK-MDR1, 2 h, 5 μM, pH 7.4
Protocol: as §3, §4, §5, §6, §7, §8

[8] = metabolic stability in mouse liver microsomes; type: in vitro ADME; settings: for HL in Microsomes: Figure 3, species of microsomes not given; for half-life at 1 μM: pH 7.4, mouse liver microsomes, read-out: Half-life in mouse micro
Protocol: (§9) Interesting compounds were also submitted for drug-drug interaction and metabolic stability assays. Low IC50s against specific cytochrome P450 isoforms may indicate the potential for a harmful drug interaction to occur in vivo with substrates of that isoform. A lack of metabolic stability in vitro may indicate potential metabolic instability in vivo, and, therefore, a shorter half-life. Drug interaction potential was evaluated in vitro using BD Gentest (Franklin Lakes, NJ) CYP450 inhibition kits as recommended by the manufacturer. Metabolic stability assessments were conducted using in vitro liver microsomes. […] The reaction is started with the addition of 1 U/mL glucose-6-phosphate dehydrogenase G6PD. The mixture is incubated on a shaking platform at 37°C, and aliquots are taken and quenched with the addition of an equal volume of cold acetonitrile at 0, 10, 20, 30, and 60 min. Samples are centrifuged at 3700 rpm for […] at 20°C to remove debris. Sample quantification is carried out by LC/MS, and metabolic half-life is calculated by log plots of the total ion chromatograph area remaining.

[9] = tested on: rodent macrophage (RAW) cell line; test: cells; settings: Mus musculus, Macrophage, read-out: Macrophage IC50
Protocol: as §2

[10] = in vitro; settings: mouse; remark: listed apart in the source
Protocol: as §2

[11] = target: T1, CYP450 1A2 (Homo sapiens, UniProt P05177); test: CYP450 inhibition kit (drug-drug interaction), 1A2; type: biochemical
T1 construct: purchased BD Gentest (Franklin Lakes, NJ)
T1 sequence (P05177 1-516): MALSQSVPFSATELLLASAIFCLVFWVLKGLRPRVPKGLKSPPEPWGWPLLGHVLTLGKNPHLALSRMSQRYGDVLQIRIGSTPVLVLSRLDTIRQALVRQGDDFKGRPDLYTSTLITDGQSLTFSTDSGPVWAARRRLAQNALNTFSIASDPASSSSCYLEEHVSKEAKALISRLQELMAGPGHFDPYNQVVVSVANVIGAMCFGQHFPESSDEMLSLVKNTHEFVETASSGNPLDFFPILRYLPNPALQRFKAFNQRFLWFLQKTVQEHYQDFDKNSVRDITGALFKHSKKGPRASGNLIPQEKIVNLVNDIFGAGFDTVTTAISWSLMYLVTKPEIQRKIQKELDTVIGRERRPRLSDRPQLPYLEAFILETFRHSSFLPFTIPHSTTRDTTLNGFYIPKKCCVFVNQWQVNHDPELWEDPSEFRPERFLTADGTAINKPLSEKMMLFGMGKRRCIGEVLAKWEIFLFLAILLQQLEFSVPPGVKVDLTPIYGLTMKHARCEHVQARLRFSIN
Protocol: as §9, with “Low” for “Interesting compounds were also submitted for drug-drug interaction and metabolic stability assays. Low”

[12] = target: T2, CYP450 2C9 (Homo sapiens, UniProt P11712); test: CYP450 inhibition kit (drug-drug interaction), 2C9; type: biochemical
T2 construct: purchased BD Gentest (Franklin Lakes, NJ)
Protocol: as §9, with “Low” for “Interesting compounds were also submitted for drug-drug interaction and metabolic stability assays. Low”

[13] = target: T3, CYP450 2C19 (Homo sapiens, UniProt P33261); test: CYP450 inhibition kit (drug-drug interaction), 2C19; type: biochemical
T3 construct: purchased BD Gentest (Franklin Lakes, NJ)
Protocol: as §9, with “Low” for “Interesting compounds were also submitted for drug-drug interaction and metabolic stability assays. Low”

[14] = target: T4, CYP450 2D6 (Homo sapiens, UniProt P10635); test: CYP450 inhibition kit (drug-drug interaction), 2D6; type: biochemical
T4 construct: purchased BD Gentest (Franklin Lakes, NJ)
Protocol: as §9, with “Low” for “Interesting compounds were also submitted for drug-drug interaction and metabolic stability assays. Low”

[15] = target: T5, CYP450 3A4 (Homo sapiens, UniProt P08684); test: CYP450 inhibition kit (drug-drug interaction), 3A4; type: biochemical
T5 construct: purchased BD Gentest (Franklin Lakes, NJ)
Protocol: as §9, with “Low” for “Interesting compounds were also submitted for drug-drug interaction and metabolic stability assays. Low”

[16] = D6, read-out: IC90 Pf D6, P. falciparum D6, mefloquine: historical mean +/- SD (n)
[17] = Plasmodium falciparum, TM90C2A, read-out: IC90 Pf C2A
[18] = D6, read-out: PF D6 IC90, P. falciparum D6
[19] = Plasmodium falciparum, TM90C2A, read-out: PF C2A IC90
[20] = Plasmodium falciparum, TM90C2A; read-out: IC90 PfC2A

T5 sequence (P08684 whole entry): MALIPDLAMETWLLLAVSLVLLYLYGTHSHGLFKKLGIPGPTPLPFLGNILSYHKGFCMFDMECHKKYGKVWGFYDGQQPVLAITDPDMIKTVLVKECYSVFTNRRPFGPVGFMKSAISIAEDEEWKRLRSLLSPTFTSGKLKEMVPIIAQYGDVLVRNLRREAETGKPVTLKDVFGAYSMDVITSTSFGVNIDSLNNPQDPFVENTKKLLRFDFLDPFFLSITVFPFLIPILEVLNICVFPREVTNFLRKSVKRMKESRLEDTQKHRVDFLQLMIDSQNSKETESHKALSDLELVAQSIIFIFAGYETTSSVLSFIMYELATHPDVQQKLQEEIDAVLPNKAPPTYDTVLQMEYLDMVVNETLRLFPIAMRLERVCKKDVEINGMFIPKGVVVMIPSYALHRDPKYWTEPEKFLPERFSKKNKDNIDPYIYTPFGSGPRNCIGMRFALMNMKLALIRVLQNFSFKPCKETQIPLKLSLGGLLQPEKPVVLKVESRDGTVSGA
T2 sequence (P11712 whole entry): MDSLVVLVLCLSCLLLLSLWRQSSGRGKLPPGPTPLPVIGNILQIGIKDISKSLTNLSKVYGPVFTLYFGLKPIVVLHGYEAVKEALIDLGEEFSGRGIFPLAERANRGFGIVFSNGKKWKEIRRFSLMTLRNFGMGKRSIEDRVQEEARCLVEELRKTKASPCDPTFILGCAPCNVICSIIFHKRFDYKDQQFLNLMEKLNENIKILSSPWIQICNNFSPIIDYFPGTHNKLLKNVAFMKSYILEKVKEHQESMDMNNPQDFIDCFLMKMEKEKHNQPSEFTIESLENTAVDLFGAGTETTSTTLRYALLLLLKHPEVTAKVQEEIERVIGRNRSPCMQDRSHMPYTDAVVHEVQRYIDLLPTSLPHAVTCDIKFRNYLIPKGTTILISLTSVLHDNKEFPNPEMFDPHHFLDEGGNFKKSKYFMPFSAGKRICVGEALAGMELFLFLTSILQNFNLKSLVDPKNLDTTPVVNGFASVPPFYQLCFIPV
T4 sequence (P10635 whole entry): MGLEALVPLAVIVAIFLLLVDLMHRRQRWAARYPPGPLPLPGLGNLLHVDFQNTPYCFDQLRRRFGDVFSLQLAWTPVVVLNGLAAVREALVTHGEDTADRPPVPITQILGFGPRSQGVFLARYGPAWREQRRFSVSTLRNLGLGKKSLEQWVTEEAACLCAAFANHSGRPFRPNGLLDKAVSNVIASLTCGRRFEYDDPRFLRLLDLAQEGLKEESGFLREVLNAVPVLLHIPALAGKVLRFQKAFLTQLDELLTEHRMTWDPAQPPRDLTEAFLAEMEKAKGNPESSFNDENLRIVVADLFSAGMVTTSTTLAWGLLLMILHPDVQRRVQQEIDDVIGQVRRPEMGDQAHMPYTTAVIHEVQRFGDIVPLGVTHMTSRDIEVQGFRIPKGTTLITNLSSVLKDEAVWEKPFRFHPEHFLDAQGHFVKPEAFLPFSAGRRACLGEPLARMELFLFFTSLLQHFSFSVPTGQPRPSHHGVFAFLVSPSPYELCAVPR
T3 sequence (P33261 whole entry): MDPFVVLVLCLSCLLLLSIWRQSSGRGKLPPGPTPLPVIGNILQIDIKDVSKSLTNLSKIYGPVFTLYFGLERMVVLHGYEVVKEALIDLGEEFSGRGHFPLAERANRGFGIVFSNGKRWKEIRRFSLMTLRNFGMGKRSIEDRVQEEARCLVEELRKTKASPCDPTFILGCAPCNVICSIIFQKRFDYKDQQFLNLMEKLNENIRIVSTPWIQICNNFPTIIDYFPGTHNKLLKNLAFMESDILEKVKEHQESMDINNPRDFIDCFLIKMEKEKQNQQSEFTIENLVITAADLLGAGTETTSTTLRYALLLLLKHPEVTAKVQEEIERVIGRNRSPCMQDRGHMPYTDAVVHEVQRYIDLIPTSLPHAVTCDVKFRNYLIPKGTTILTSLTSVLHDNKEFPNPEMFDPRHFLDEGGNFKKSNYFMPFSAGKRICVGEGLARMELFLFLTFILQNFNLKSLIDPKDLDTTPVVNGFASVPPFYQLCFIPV

SMILES	IC90 ([1]; W2, read-out: IC90 Pf W2)	IC90 [2, 16]	IC90 ([3]; read-out: IC90 Pf C235)	IC90 [4, 17]	CC50 [5]	Papp A→B at 2 h, 5 μM [6]	% recovery (MDCK-MDR1 permeability assay) [7]	HL in Microsomes [8]	IC90 ([1]; W2, read-out: PF W2 IC90)	IC90 [2, 18]	IC90 ([3]; read-out: PF C235 IC90)	IC90 [4, 19]	IC50 [9]	CC50 [10]	half-life at 1 μM [8]	IC50 [11]	IC50 [12]	IC50 [13]	IC50 [14]	IC50 [15]	further results
OC(CNCC1CCCN1)c1cc(C(F)(F)F)nc2c(C(F)(F)F)cccc12 (stereo not drawn) [WR308621]	0.046 µg/mL (≈ 0.113 µM)	0.092 µg/mL (≈ 0.226 µM)	0.1 µg/mL (≈ 0.245 µM)	0.198 µg/mL	20.3 µg/mL (≈ 49.8 µM)	< 3.3 ×10⁻⁶ cm/s	28%	> 60 min													
CCCCNCCNCC(O)c1cc(C(F)(F)F)nc2c(C(F)(F)F)cccc12 (stereo not drawn) [WR318746]	0.09 µg/mL (≈ 0.213 µM)	0.155 µg/mL (≈ 0.366 µM)	0.283 µg/mL (≈ 0.668 µM)	0.319 µg/mL	28.5 µg/mL (≈ 67.4 µM)	5.9 ×10⁻⁶ cm/s	42%	> 60 min													
CC1C(NCC(O)c2cc(C(F)(F)F)nc3c(C(F)(F)F)cccc23)CC2CC1C2(C)C (stereo not drawn) [WR308446]	< 0.001 µg/mL	0.014 µg/mL (≈ 0.0304 µM)	0.019 µg/mL (≈ 0.0413 µM)	0.016 µg/mL					< 0.00048 µg/mL	0.0143 µg/mL (≈ 0.0311 µM)	0.0189 µg/mL (≈ 0.041 µM)	0.0155 µg/mL	8.85 µM	48 µM	13 min	> 40 µM	16 µM	14 µM	9.1 µM	> 40 µM	IC90 [4, 20]: 34 nM
C=CCNCC(O)c1cc(C(F)(F)F)nc2c(C(F)(F)F)cccc12 (stereo not drawn) [WR308255]	0.0038 µg/mL (≈ 0.0104 µM)	0.015 µg/mL (≈ 0.0412 µM)	0.019 µg/mL (≈ 0.0522 µM)	0.037 µg/mL					0.00375 µg/mL (≈ 0.0103 µM)	0.0145 µg/mL (≈ 0.0398 µM)	0.0187 µg/mL (≈ 0.0513 µM)	0.0368 µg/mL	58.4 µM	> 120 µM	25 min	1.5 µM	25 µM	25 µM	2.9 µM	18 µM	IC90 ([4]; Plasmodium falciparum, TM90C2A, read-out: IC90 PfC2A): 101 nM; IC90 ([4]; Plasmodium falciparum, TM90C2A, read-out: Pf C2A IC90 nM values calculated using MW in Column C): 101 nM; CSI (C2A/W2) ([4]; ratio of IC90 C2A to IC90 W2): 9.8
CCC(C)CNCC(O)c1cc(C(F)(F)F)nc2c(C(F)(F)F)cccc12 (stereo not drawn) [WR308387]	0.0012 µg/mL (≈ 0.00304 µM)	0.007 µg/mL (≈ 0.0178 µM)	0.012 µg/mL (≈ 0.0304 µM)	0.011 µg/mL		18 ×10⁻⁶ cm/s	42%		0.00119 µg/mL (≈ 0.00302 µM)	0.00695 µg/mL (≈ 0.0176 µM)	0.0116 µg/mL (≈ 0.0293 µM)	0.011 µg/mL	20.8 µM	> 120 µM	20 min	2.1 µM	11 µM	7 µM	2 µM	> 40 µM	IC90 [4, 20]: 26 nM; CSI (C2A/W2) ([4]; ratio of IC90 C2A to IC90 W2): 9.2
